# Publication PMC8213057, “Targeting ALK2: An Open Science Approach to Developing Therapeutics for the Treatment of Diffuse Intrinsic Pontine Glioma” (Journal of Medicinal Chemistry, 2020)
# Columns and labels:
# TLK1 = target: T1, TLK1 (Homo sapiens, UniProt Q9UKI8); assay: biochemical; details: read-out: % enzyme activity, 1 μM; Run 1, Run 2
# T1 sequence (Q9UKI8 1-766): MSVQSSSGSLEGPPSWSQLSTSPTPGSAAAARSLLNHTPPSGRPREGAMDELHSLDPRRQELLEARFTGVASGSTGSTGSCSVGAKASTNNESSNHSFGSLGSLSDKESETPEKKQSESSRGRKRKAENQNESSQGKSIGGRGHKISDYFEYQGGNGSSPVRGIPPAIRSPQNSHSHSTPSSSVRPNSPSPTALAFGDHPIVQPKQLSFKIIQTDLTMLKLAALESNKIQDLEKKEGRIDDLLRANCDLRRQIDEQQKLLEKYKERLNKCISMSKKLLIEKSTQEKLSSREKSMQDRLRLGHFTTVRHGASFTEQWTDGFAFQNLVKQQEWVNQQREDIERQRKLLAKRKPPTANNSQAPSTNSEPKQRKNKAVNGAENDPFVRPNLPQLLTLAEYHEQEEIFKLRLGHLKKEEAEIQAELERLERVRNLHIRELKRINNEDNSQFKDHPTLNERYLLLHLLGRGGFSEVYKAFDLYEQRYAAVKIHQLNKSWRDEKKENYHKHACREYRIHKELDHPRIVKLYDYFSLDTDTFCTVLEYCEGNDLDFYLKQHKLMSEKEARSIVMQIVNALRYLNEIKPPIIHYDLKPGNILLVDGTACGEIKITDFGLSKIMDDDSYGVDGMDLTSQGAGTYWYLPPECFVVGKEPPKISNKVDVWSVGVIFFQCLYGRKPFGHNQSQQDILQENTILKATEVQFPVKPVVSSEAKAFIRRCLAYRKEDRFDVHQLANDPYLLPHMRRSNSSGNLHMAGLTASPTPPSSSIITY
# PASK = PASK (Homo sapiens, UniProt Q96RG2); details: 1 μM; Run 1, Run 2
# ROCK2 = ROCK2 (Homo sapiens, UniProt O75116); details: 1 μM; Run 1, Run 2
# RAF1 = RAF1 (Homo sapiens, UniProt P04049); details: 1 μM; Run 1, Run 2
# TGFBR2 = target: T2, TGFBR2 (Homo sapiens, UniProt P37173); assay: 375-member kinase panel; format: biochemical; details: Run 1, Run 2; for % enzyme activity: 1 μM; for remaining activity at 1 µM: read-out: % enzyme activity, 1 μM
# T2 construct: purchased Reaction Biology Corporation
# MARK2/PAR-1Ba = MARK2/PAR-1Ba (Homo sapiens, UniProt Q7KZI7); assay: biochemical; details: read-out: % enzyme activity, 1 μM; Run 1, Run 2
# EGFR = EGFR (Homo sapiens, UniProt P00533); assay: biochemical; details: read-out: % enzyme activity, 1 μM; Run 1, Run 2
# TLK2 = TLK2 (Homo sapiens, UniProt Q86UE8); details: 1 μM; Run 1, Run 2
# STK21/CIT = STK21/CIT (Homo sapiens, UniProt O14578); details: 1 μM; Run 1, Run 2
# MASTL = target: T3, MASTL (Homo sapiens, UniProt Q96GX5); details: 1 μM; Run 1, Run 2
# T3 sequence (Q96GX5 1-879): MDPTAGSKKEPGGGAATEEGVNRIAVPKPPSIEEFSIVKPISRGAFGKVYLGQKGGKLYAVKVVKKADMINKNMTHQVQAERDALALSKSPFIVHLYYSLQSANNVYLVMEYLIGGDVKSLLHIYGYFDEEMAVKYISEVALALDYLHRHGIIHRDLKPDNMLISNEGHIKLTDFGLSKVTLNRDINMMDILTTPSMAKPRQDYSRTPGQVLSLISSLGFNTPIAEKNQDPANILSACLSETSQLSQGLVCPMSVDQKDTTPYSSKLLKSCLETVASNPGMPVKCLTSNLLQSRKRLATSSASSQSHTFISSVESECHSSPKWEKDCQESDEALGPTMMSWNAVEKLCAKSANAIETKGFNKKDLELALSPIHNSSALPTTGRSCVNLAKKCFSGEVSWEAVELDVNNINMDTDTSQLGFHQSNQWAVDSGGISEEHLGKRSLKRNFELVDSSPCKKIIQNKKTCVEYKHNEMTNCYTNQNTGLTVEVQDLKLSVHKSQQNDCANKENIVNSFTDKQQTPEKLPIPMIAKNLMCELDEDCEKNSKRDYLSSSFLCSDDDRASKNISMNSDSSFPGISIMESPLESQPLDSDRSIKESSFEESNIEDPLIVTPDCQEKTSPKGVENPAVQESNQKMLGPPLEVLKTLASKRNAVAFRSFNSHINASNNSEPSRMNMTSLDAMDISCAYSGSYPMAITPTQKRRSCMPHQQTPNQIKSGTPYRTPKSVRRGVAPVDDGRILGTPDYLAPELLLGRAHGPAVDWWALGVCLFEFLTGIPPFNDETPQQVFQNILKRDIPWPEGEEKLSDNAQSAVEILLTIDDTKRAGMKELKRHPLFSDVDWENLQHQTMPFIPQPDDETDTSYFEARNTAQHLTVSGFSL
# MEK3 = target: T4, MEK3 (Homo sapiens, UniProt P46734); details: 1 μM; Run 1, Run 2
# T4 sequence (P46734 1-347): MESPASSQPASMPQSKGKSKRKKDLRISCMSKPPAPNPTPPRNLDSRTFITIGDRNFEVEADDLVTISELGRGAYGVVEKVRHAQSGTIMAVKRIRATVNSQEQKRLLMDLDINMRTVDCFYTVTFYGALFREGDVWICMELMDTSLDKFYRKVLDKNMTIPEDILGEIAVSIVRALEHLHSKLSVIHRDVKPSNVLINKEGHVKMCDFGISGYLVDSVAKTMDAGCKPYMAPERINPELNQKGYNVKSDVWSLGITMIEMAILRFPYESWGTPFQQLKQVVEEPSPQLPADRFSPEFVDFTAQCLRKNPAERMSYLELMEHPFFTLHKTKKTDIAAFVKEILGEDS
# PAK6 = PAK6 (Homo sapiens, UniProt Q9NQU5); details: 1 μM; Run 1, Run 2
# PKAcg = PKAcg (Homo sapiens, UniProt P22612); details: 1 μM; Run 1, Run 2
# LIMK1 = LIMK1 (Homo sapiens, UniProt P53667); details: 1 μM; Run 1, Run 2
# T2 sequence (P37173 23-567): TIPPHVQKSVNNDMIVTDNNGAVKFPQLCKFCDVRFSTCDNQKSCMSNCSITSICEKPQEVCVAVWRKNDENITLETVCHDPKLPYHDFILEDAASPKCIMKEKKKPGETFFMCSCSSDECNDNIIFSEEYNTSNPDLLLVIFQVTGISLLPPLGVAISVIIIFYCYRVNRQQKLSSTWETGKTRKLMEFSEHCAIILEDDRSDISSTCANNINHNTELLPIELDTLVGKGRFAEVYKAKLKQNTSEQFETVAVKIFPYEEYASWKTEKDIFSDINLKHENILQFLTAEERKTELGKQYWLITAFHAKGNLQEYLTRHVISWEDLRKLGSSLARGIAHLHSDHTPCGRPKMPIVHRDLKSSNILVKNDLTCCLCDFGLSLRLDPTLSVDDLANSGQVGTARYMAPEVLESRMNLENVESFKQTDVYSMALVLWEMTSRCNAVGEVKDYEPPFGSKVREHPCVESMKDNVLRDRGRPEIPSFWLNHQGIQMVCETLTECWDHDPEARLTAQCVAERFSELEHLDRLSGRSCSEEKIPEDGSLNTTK
# Sequence of RAF1 (P04049 whole entry): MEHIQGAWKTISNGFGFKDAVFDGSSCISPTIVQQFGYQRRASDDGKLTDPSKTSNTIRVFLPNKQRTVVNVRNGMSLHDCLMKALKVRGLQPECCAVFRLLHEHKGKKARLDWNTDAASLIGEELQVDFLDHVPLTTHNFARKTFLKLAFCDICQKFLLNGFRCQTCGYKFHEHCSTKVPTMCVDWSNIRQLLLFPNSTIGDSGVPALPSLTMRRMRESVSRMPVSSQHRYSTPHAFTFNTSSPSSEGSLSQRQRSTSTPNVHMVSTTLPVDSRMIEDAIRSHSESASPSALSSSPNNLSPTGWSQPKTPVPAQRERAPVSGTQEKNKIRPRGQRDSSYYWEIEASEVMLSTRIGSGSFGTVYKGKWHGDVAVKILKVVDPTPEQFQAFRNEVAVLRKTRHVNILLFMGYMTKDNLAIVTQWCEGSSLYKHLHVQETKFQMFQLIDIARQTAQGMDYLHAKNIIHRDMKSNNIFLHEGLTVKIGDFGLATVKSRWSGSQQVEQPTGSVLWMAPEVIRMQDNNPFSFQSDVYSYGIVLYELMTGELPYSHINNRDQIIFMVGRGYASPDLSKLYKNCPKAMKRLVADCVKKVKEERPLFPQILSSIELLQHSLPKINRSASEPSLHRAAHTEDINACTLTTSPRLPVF
# Sequence of EGFR (P00533 25-1210): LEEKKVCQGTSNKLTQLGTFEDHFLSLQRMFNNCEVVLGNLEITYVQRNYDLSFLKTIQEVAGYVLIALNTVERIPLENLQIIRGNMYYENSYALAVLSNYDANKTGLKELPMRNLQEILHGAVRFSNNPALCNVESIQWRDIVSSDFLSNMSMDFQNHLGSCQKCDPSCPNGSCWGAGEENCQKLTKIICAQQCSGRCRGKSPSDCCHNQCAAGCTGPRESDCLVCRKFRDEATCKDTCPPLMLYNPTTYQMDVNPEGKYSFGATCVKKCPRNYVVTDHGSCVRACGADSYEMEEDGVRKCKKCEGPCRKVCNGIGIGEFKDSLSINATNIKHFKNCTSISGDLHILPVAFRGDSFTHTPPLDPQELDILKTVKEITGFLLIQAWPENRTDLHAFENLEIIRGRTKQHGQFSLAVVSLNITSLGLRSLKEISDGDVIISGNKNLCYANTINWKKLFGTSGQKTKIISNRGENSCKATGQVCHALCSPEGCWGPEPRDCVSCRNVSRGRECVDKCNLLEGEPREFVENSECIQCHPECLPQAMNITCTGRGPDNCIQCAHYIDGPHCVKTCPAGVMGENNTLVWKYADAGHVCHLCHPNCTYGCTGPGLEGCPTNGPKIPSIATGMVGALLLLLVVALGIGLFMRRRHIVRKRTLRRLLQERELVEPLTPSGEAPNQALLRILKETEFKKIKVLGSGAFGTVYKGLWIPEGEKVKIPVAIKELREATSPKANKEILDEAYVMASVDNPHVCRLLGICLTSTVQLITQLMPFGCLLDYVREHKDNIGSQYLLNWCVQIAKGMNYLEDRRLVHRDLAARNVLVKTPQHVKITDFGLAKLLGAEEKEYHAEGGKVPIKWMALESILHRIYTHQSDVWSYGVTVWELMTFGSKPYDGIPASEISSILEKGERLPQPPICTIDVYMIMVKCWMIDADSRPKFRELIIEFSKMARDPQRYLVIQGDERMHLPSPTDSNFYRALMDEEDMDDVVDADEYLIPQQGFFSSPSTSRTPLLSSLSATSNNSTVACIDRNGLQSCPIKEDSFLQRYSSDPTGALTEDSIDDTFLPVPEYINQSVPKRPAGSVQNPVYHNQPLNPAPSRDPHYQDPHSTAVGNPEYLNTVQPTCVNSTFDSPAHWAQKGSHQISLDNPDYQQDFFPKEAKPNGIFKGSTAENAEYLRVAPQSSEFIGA
# Sequence of TLK2 (Q86UE8 whole entry): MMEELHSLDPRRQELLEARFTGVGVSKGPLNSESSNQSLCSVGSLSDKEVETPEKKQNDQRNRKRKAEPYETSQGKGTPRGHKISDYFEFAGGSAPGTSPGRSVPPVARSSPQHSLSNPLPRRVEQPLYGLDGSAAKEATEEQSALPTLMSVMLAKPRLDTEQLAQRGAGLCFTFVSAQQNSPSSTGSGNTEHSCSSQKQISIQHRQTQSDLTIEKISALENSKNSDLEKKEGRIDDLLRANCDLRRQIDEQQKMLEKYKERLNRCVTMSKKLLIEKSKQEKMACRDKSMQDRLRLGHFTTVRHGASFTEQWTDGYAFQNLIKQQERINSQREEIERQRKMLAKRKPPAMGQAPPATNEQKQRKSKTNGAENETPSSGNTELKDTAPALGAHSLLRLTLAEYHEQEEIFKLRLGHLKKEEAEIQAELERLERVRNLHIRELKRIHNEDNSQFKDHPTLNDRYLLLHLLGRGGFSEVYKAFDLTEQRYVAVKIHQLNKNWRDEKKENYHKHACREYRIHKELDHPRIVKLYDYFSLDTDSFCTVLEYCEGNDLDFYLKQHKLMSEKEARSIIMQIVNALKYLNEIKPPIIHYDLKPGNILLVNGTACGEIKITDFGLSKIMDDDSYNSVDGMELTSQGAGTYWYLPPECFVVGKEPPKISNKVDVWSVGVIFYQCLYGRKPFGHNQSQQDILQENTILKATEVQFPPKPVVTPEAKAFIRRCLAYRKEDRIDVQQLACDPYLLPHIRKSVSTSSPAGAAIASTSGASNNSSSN
# Sequence of PASK (Q96RG2 whole entry): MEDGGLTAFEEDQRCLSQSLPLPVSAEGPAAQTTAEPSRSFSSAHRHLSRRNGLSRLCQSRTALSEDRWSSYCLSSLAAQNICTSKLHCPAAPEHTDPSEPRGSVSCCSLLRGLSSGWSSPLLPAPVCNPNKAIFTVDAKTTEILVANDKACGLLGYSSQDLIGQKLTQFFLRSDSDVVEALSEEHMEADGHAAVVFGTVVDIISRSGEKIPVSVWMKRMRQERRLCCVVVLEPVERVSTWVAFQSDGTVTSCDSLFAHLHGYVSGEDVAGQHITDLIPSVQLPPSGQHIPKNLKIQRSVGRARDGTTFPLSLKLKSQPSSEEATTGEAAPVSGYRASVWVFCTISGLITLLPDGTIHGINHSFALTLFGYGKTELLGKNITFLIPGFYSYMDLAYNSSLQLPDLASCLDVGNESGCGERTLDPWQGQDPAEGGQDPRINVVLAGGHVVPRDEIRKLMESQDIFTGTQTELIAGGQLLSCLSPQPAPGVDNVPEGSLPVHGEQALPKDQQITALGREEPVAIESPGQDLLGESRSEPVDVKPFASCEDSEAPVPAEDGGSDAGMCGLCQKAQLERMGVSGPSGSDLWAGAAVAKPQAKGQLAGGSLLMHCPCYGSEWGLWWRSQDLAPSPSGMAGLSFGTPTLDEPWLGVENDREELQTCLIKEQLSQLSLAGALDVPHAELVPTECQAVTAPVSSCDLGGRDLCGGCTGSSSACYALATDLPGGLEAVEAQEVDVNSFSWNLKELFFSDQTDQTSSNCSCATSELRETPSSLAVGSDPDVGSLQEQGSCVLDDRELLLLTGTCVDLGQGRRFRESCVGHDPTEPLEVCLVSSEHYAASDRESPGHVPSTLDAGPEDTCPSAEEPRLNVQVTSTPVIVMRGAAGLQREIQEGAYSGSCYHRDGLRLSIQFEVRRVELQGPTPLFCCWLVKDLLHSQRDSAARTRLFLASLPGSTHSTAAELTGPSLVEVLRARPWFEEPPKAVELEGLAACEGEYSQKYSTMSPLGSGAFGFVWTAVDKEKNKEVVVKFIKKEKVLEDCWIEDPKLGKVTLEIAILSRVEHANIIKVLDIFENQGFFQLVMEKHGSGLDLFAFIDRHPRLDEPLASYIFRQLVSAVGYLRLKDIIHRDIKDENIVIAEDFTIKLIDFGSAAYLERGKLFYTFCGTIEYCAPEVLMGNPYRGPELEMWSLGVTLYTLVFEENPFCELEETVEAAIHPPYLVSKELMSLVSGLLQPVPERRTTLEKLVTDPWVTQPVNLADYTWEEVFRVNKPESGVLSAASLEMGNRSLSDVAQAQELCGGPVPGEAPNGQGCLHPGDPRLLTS
# Sequence of PKAcg (P22612 whole entry): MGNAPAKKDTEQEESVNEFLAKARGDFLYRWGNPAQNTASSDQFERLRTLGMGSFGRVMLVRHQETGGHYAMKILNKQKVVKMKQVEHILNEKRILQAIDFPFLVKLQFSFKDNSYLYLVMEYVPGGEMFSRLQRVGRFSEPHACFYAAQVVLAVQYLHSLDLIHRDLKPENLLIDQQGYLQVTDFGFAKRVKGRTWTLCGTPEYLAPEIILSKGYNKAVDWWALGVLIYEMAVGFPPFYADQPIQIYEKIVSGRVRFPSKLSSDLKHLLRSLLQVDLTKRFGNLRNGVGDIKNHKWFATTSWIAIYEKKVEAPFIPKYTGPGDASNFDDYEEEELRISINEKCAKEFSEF
structure (smiles),measurement,setting,value
"COc1cc(-c2cncc(-c3ccc(N4CCN(C)CC4)cc3)c2C)cc(F)c1C(N)=O [Compound 26a, 2-Fluoro-6-methoxy-4-(4-methyl-5-(4-(4-methylpiperazin-1-yl)phenyl)pyridin-3-yl)benzamide]",remaining activity at 1 µM,TLK1,108%
same,% enzyme activity,PASK,93.23%
same,% enzyme activity,ROCK2,115.13%
same,% enzyme activity,RAF1,78.57%
same,% enzyme activity,TGFBR2,97.44%
same,remaining activity at 1 µM,TGFBR2,103%
same,remaining activity at 1 µM,MARK2/PAR-1Ba,92.8%
same,remaining activity at 1 µM,EGFR,96%
same,% enzyme activity,TLK2,95.61%
same,% enzyme activity,STK21/CIT,84.42%
same,% enzyme activity,MASTL,98.59%
same,% enzyme activity,MEK3,100.94%
same,% enzyme activity,PAK6,97.22%
same,% enzyme activity,PKAcg,93.99%
same,% enzyme activity,LIMK1,64.18%
"COc1cc(-c2cncc(-c3ccc(N4C[C@@H](C)N(C)[C@@H](C)C4)cc3)c2C)cc(F)c1C(N)=O [Compound 26c, 2-Fluoro-6-methoxy-4-(4-methyl-5-(4-((3R,5S)-3,4,5-trimethylpiperazin-1-yl)phenyl)pyridin-3-yl)benzamide]",remaining activity at 1 µM,TLK1,104%
same,% enzyme activity,PASK,98.21%
same,% enzyme activity,ROCK2,93.98%
same,% enzyme activity,RAF1,83.85%
same,% enzyme activity,TGFBR2,105.33%
same,remaining activity at 1 µM,TGFBR2,106%
same,remaining activity at 1 µM,MARK2/PAR-1Ba,104%
same,remaining activity at 1 µM,EGFR,95.3%
same,% enzyme activity,TLK2,89.84%
same,% enzyme activity,STK21/CIT,84.97%
same,% enzyme activity,MASTL,100.30%
same,% enzyme activity,MEK3,101.33%
same,% enzyme activity,PAK6,95.67%
same,% enzyme activity,PKAcg,98.97%
same,% enzyme activity,LIMK1,72.63%
